Each block holds one molecule with its values, some of them ahead of it. Where a SMILES comes first, the peptide text is derived from it. Where no end group is shown, it is not given here. [ ]: non-standard residue; d: D form. The star is where a group is joined. Nle = CCCC[C@H](N)C(=O)O; Cbz = O=C(OCc1ccccc1)*
Tests used:
[1] = system: processing of PGRN into GRNs; test: Protease inhibitor panel, PGRN/GRN levels by immunoblot; assay type: cell-based, human; details: HAP1 WT cells, 24 hrs
Protocol: (§1) Asterisks (*) denote endogenous, intermediate PGRN cleavage products.
Processing of PGRN into GRNs likely involves one or more lysosomal proteases. To narrow down which class of proteases may be responsible for intracellular PGRN metabolism, HAP1 WT cells were treated with a panel of protease inhibitors and measured PGRN/GRN levels by immunoblot. […] One potential candidate lysosomal cysteine protease is cathepsin L, which was reported to cleave mouse PGRN in vitro.

[2] = system: PGRN KO mouse embryonic fibroblasts (MEFs); test: Uptake of recombinant PGRN and generation of GRNs in PGRN KO MEFs; assay type: cell-based; details: 5 or 10 μg/mL, immunoblot
Protocol: PGRN KO MEF cells were treated with recombinant human PGRN (5 or 10 μg/mL) or recombinant mouse PGRN (5 μg/mL) in the media for 24 hrs and lysates were analyzed for PGRN (R&D AF2420) and GRN (Sigma) by immunoblot.
Because this study focused on screening and validating human specific PGRN antibodies, antibodies to detect endogenous mouse GRNs have not been identifies. Nevertheless, to determine if mouse cells are able to process human PGRN into mature GRNs, primary PGRN KO mouse embryonic fibroblasts (MEFs) were treated with recombinant human or mouse PGRN for […]. PGRN/GRN levels were measured in the lysates by immunoblot. […] Next, experiments were performed to determine if human PGRN would be processed into GRNs in mouse brain. Somatic brain transgenesis (SBT) were performed by injecting rAAV2/1 encoding eGFP or human N-TAP PGRN into the cerebral ventricles of newborn (PO) PGRN KO mice. The SBT paradigm leads to transgene expression that is almost exclusively neuronal as assessed by predominant co-localization between eGFP or PGRN (V5) and the neuronal marker NeuN at 3 months of age.

[3] = target: C-TAP PGRN (UniProt P28799)
[4] = system: processing of PGRN into GRNs; test: Pan-lysosomal inhibitor treatment, PGRN/GRN levels by ELISA and immunoblot; assay type: cell-based, human; details: HAP1 WT cells, 24 hrs, CQ 50 μM, BafA1 50 nM, ConA 50 nM; for secreted PGRN: conditioned media ELISA; for GRN levels / intracellular PGRN: immunoblot
Protocol: HAP1 WT cells were treated for 24 hrs with the pan-lysosome inhibitors chloroquine (CQ; 50 μM), bafilomycin A1 (BafA1; 50 nM), or concanamycin A (ConA; 50 nM) and conditioned media was analyzed for secreted PGRN by ELISA.
as §1
Because rapid processing of endocytosed PGRN into GRNs was observed, inhibiting lysosome function could impair GRN production. To determine the effect of pharmacologic lysosome inhibition on GRN levels, HAP1 WT cells were treated with the pan-lysosomal inhibitors chloroquine, bafilomycin A1, or concanamycin A1 for 24 hours and monitored PGRN/GRN levels by immunoblot. These compounds act as lysosome alkalizing agents or inhibitors of the vacuolar-type H+-ATPase (V-ATPase), which is needed for proper lysosome acidification and function. Further, these compounds increase intracellular and secreted PGRN.

[5] = at 25° C.; cited from earlier work
[6] = target: cathepsin L (Homo sapiens, UniProt P07711); test: In vitro cleavage of PGRN by recombinant cathepsin L; assay type: biochemical
Chain of cathepsin L (P07711 114-333, species assumed): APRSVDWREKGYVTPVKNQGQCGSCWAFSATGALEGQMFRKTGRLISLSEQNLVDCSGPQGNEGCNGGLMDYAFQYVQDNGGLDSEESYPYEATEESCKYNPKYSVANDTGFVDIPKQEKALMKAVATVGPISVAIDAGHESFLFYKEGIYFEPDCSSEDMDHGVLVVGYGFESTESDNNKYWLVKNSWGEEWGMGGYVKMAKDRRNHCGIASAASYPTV

[7] = system: Grn KO MEF cells; test: Rescue of cathepsin-D (CTSD) phenotype in Grn KO MEFs by exogenous protein; assay type: cell-based, mouse; details: PGRN 10 μg/mL or GRN-2 proteins 25 μg/mL, 120 hrs, immunoblot
[8] = system: processing of PGRN into GRNs; test: Cathepsin L inhibitor II treatment, PGRN/GRN levels by immunoblot; assay type: cell-based, human; details: HAP1 WT cells, increasing concentrations, 40 hrs
From the text: as §1

[9] = system: HAP1 PGRN KO cells; test: Uptake and processing of C-TAP or N-TAP PGRN into GRNs (immunoblot); assay type: cell-based, human; details: 5 μg/mL, 24 hrs, compared to N-TAP PGRN
Protocol: HAP1 PGRN KO cells were treated with C-TAP PGRN or N-TAP PGRN (5 μg/mL) for 24 hrs and […] lysates were analyzed for PGRN and GRN by immunoblot.
PGRN levels have been linked to expression of several genes including SORT1, encoding the membrane receptor sortilin, and TMEM106B, encoding the transmembrane protein 106B (TMEM106B). Thus, altered expression of these proteins could affect the production of intracellular GRNs as well. To address this, experiments were performed to determine if expression of sortilin, which facilitates endocytosis and trafficking of PGRN to the lysosome, influences GRN levels. PGRN KO cells were treated with PGRN tagged at either the C-terminus (C-TAP), which disrupts sortilin binding or the N-terminus (N-TAP), which preserves sortilin binding, and measured intracellular PGRN and GRN by immunoblot. […] Next, HAP1 SORT1 KO cells were generated using CRISPR/Cas9 technology. […] Thus, disruption of the SORT1/PGRN axis alters intracellular PGRN trafficking and leads to decreased GRN production.

Molecule: CC(NC(=O)[C@H](Cc1ccccc1)NC(=O)OCc1ccccc1)C(=O)CF (stereo partly drawn) [Z-FA-fmk]
GRN levels compared to vehicle treated control [1]: reduced GRN levels

Molecule: N-TAP PGRN: full-length human PGRN with twin Strep tag and V5 epitope after the signal sequence; preserves sortilin binding
endocytosis of PGRN and generation of mature human GRNs [2]: equally well

Molecule: recombinant cathepsin L
in vitro cleavage of PGRN (immunoblot) [3]: Incubation of cathepsin L and recombinant human PGRN lead to the time-dependent decrease of full-length PGRN and a corresponding increase of GRN protein

Molecule: CO/C1=C\C(C)=C\[C@@H](C)[C@@H](O)[C@@H](C)C/C(C)=C/C=C/[C@H](OC)[C@@H]([C@@H](C)[C@@H](O)[C@H](C)[C@@]2(O)C[C@@H](O)[C@H](C)[C@@H](C(C)C)O2)OC1=O [bafilomycin A1]
secreted PGRN [4]: significantly increased
GRN levels [4]: significantly decreased
intracellular PGRN [4]: significantly increased

Molecule: CCN(CC)CCCC(C)Nc1ccnc2cc(Cl)ccc12 (stereo not drawn) [chloroquine]
secreted PGRN [4]: significantly increased
GRN levels [4]: significantly decreased
intracellular PGRN [4]: significantly increased

Molecule: CCCCCCCC [octane]
percent solubility in water by weight [5]: 0.63×10^−4 % w/w

Molecule: C/C=C/[C@H]1O[C@@](O)([C@@H](C)[C@H](O)[C@H](C)[C@H]2OC(=O)/C(OC)=C/C(C)=C/[C@@H](C)[C@@H](O)[C@@H](CC)[C@@H](O)[C@H](C)C/C(C)=C/C=C/[C@@H]2OC)C[C@@H](O[C@H]2C[C@@H](O)[C@H](OC(N)=O)[C@@H](C)O2)[C@@H]1C [concanamycin A1, concanamycin A]
secreted PGRN [4]: significantly increased
GRN levels [4]: significantly decreased
intracellular PGRN [4]: significantly increased

full-length PGRN on incubation with cathepsin L ([6]; with corresponding increase of GRN protein): time-dependent decrease
Molecule: recombinant human PGRN: recombinant full-length human progranulin protein (C-TAP PGRN in the cathepsin L cleavage)
GRNs generated by in vitro cleavage with cathepsin L ([6]; 2 hrs, immunoblot): generated multiple, mature GRNs including GRN-2, -3, and -4
endocytosis of PGRN and generation of mature human GRNs [2]: efficiently endocytosed
CTSD phenotype (total mature CTSD levels) [7]: can be rescued

Molecule: CC(=O)N[C@@H](CC(C)C)C(=O)N[C@@H](CC(C)C)C(=O)N[C@H](C=O)CCCNC(=N)N [leupeptin]
GRN levels compared to vehicle treated control [1]: reduced GRN levels

Molecule: CCCC[C@@H](C=O)NC(=O)[C@H](CC(C)C)NC(=O)[C@H](CC(C)C)NC(C)=O [ALLN] (Ac-Leu-Leu-[Nle]-aldehyde)
GRN levels compared to vehicle treated control [1]: reduced GRN levels

Molecule: O=C[C@H](Cc1ccc(O)cc1)NC(=O)[C@H](Cc1ccccc1)NC(=O)OCc1ccccc1 [cathepsin L inhibitor II, Z-FY-CHO] (Cbz-Phe-Tyr-aldehyde)
endogenous PGRN [8]: modestly increased
production of GRN [8]: significantly decreasing

Molecule: GRN-2: recombinant human granulin-2 protein, SEQ ID NO: 21, with twin Strep-tag (AIQCPDSQFECPDFSTCCVMVDGSWGCCPMPQASCCEDRVHCCPHGAFCDLVHTRCIT; cysteine pairing not given here; also: twin Strep-tag (position not given here))
CTSD phenotype (total mature CTSD levels) [7]: rescues the CTSD phenotype

B1: C-TAP PGRN: full-length human PGRN with C-terminal twin-Strep tag followed by FLAG epitope; disrupts sortilin binding (protein)
chain: TRCPDGQFCPVACCLDPGGASYSCCRPLLDKWPTTLSRHLGGPCQVDAHCSAGHSCIFTVSGTSSCCPFPEAVACGDGHHCCPRGFHCSADGRSCFQRSGNNSVGAIQCPDSQFECPDFSTCCVMVDGSWGCCPMPQASCCEDRVHCCPHGAFCDLVHTRCITPTGTHPLAKKLPAQRTNRAVALSSSVMCPDARSRCPDGSTCCELPSGKYGCCPMPNATCCSDHLHCCPQDTVCDLIQSKCLSKENATTDLLTKLPAHTVGDVKCDMEVSCPDGYTCCRLQSGAWGCCPFTQAVCCEDHIHCCPAGFTCDTQKGTCEQGPHQVPWMEKAPAHLSLPDPQALKRDVPCDNVSSCPSSDTCCQLTSGEWGCCPIPEAVCCSDHQHCCPQGYTCVAEGQCQRGSEIVAGLEKMPARRASLSHPRDIGCDQHTSCPVGQTCCPSLGGSWACCQLPHAVCCEDRQHCCPAGYTCNVKARSCEKEVVSAQPATFLARSPHVGVKDVECGEGHFCHDNQTCCRDNRQGWACCPYRQGVCCADRRHCCPAGFRCAARGTKCLRREAPRWDAPLRDPALRQLL
modifications: left off: small tags and cut ends
endocytosis of PGRN and generation of mature human GRNs [2]: equally well
endocytosis and processing into GRNs [9]: not efficiently endocytosed and processed into GRNs

From patent US20240002459A1, “Granulin Compositions and Uses Related Thereto” (Emory University, priority 2016, published 2024)
